Entries after “also recorded” stand apart in the source; their conditions may differ.
Legend:
eeAChE = biological target: T1, eeAChE (Electrophorus electricus, UniProt O42275); assay: Cholinesterase inhibition, Ellman's protocol, eeAChE; assay type: biochemical; conditions: read-out: eeAChE % inh.
T1 construct: purchased Sigma-Aldrich
Protocol: In vitro pharmacological assays.
The in vitro inhibitory activity toward cholinesterases (eeAChE, eqBuChE,
The target compounds were tested for their inhibitory potency against cholinesterases using
Ellman’s protocol[32] modified for 96-well microplates.
The stock solutions of the
target compounds were prepared in DMSO and diluted with water, giving the desired final
concentrations. The enzymes were prepared as 5 U/mL aqueous stock solutions and diluted
(AChE or BuChE) were added to the reaction mixture in the wells, containing 25 μL of the
target compound (in case of blank samples – water or water/DMSO mixture), 200 μL of 0.1
M phosphate buffer (pH = 8.0) and 20 μL of 5,5'-dithiobis-(2-nitrobenzoic acid) DTNB
All those reagents were preincubated for 5 min at 25 °C for the reactions with the
animal enzymes (eeAChE or eqBuChe) and 36 °C for the human enzyme ( hBuChE) tests. The
enzymatic reaction was initiated by the addition of 20 μL of substrate acetylthiocholine iodide
using the EnSpire multimode microplate reader (PerkinElmer, Waltham, MA, USA). Target
compounds were tested at the screening concentrations of 10 μM or 1 µM for inhibitory
potencies towards animal cholinesterases or human enzyme, respectively. Percent of enzyme
inhibition was calculated based on the formula 100 -(S/B)x100, where S and B were the
respective enzyme activities with and without the test compound, respectively. Compounds
with the enzyme inhibitory activities at 10 μM better than 50% ( eeAChE or eqBuChe) and at
were based on the absorbance measured at seven different inhibitor concentrations, then
percentages of enzymes’ inhibition were plotted against the applied inhibitor concentrations
using nonlinear regression (GraphPad Prism 9; GraphPad Software, San Diego, CA, USA).
All the experiments were performed in
a %inh. at an inhibitor concentration of 10 µM

[1] = system: mice treated with scopolamine; assay: Passive avoidance (PA) task, scopolamine-induced amnesia; assay type: in vivo; conditions: 10 mg/kg i.p., vs scopolamine-treated group
Protocol: Animals and housing conditions
In all pharmacodynamic in vivo experiments, except for the Barnes maze (BM) task, adult male Albino Swiss (CD-1) mice weighing between 18 and 22 g and purchased from the Animal Breeding Farm of the Faculty of Pharmacy, Jagiellonian University Medical College were used. In BM task, C57BL/6J mice of the same weight (Animalab, Poland) were used.
Animals were housed in cages (10 mice per cage) at a constant temperature of 22 ± 2 °C, humidity of 55 ± 10%, and a light/dark (12:12) cycle (lights on at 7 AM). Before the experiments, the animals had unlimited access to food and water. Specified conditions for the maintenance of mice were ensured throughout the experiments, including tree bedding (Transwior, Poland) and cage enrichment (tunnels, nesting material, wooden igloos, etc.). […]
doses for behavioral assays. Lower doses were also assessed if at least one of them was […]
On the first day, during the acquisition trial (a conditioning phase), the test compound 6, scopolamine, and vehicle were injected. […] The latency between opening the guillotine gate and the mouse entering the black compartment was measured for each mouse. On the next day, during the retention (drug-off) trial, the mice were placed again into the white compartment for a 30-s habituation period, and the latency to enter the black compartment was measured for each mouse. […]

T1 sequence (O42275 24-633): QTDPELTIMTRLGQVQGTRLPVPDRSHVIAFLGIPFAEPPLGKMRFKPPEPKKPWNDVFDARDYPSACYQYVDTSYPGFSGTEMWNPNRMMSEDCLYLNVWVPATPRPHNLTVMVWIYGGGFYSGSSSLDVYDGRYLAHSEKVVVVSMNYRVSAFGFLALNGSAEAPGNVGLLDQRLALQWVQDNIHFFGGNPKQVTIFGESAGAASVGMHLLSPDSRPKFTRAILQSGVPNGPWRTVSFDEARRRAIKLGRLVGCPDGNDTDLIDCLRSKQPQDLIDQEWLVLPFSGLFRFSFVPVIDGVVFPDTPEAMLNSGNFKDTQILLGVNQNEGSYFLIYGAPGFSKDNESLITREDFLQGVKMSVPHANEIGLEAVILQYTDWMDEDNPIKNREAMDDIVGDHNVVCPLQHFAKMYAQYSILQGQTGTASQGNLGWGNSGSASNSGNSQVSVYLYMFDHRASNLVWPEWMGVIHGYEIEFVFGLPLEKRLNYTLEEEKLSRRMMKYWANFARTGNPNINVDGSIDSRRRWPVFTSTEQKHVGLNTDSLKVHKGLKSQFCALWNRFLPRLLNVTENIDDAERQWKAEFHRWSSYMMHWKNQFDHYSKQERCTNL

Q: With `O[C@H](CNCC1CC1)[C@H](Cc1ccccc1)NC1c2ccccc2-c2ccccc21` [Compound 6] as the compound, how does the inhibition at 10 µM (eeAChE) read?
A: < 10%

Q: And the “step-through latency in the retention trial” value [1]?
A: significant differences were observed in the retention trial; also recorded: prolonged step‐thorough latency
